From patent US8114583B2, “Switch-region: target and method for inhibition of bacterial RNA polymerase” (priority 2005, dated 2012)
Values joined by “and” are separate entries in the source; they are usually repeats but may differ in a detail not shown here. Equal entries are not always repeated. Where two headings read alike, the source gives them in different places.

What was measured:
eukaryotic RNAP II = settings: cited from earlier work
Escherichia coli RNAP = Escherichia coli RNAP (Escherichia coli, UniProt P0A8T7+P0A8V2); assay type: biochemical
Source text: (A) DNA construct SEQ ID NO:133. (B) Data.
(A) DNA construct SEQ ID NO:134. (B) Data.
Applicant has performed transcription and DNA-binding experiments in order to define the basic mechanism of transcription inhibition by Myx (methods as in Mukhopadhyay, et al. (2004) Mol. Cell. 14, 739-751).
Applicant has performed DNA binding experiments with a series of subfragments of promoter DNA in order to map the interaction of RNAP with promoter DNA inhibited by Myx (methods as in Mukhopadhyay, et al. (2004) Mol. Cell. 14, 739-751). […] This DNA segment corresponds, precisely, to the DNA segment proposed to bind within the RNAP active-center cleft, and to be affected by clamp opening and closing, in structural models of transcription initiation complexes (see Ebright (2000) J. Mol. Biol. 304, 687-698; Murakami, et al. (2003) Curr. Opin. Stuct. Biol. 12, 89-97; Borukhov & Nudler (2003) Curr. Opin. Microbiol. 6, 93-100; Murakami, et al. (2002) Science 296, 1285-1290; Naryshkin, et al. (2000) Cell 101, 601-611; Mekler, et al. (2002) Cell 108, 599-614).

Staphylococcus aureus = settings: cited from earlier work
[1] = system: Escherichia coli DH21tolC; test: bacteriocidal activity; assay type: cell-based; settings: unpublished data
bacterial RNAP = bacterial RNAP (Escherichia coli, UniProt P0A8T7+P0A8V2); settings: read-out: Ki, inhibition of bacterial RNAP; cited from earlier work
[2] = system: Escherichia coli DH21tolC; settings: cited from earlier work
[3] = system: Escherichia coli with substitutions in RNAP β′ subunit (rpoC) or β subunit (rpoB); test: MIC ratio (MIC mutant/MIC wild-type) of resistant rpoC/rpoB mutants; assay type: cell-based
Source text: To identify determinants for function of Myx, Applicant has performed random mutagenesis of genes encoding Escherichia coli RNAP β′ subunit (rpoC) and β subunit (rpoB), and has isolated and sequenced five independent Myx-resistant mutants (methods as described in Mukhopadhyay, et al. (2004) Mol. Cell. 14, 739-751).
To further define determinants for function of Myx, Applicant has performed saturation mutagenesis of genes encoding Escherichia coli RNAP β′ subunit (rpoC) and β subunit (rpoB), and has isolated and sequenced more than 100 independent Myx-resistant mutants (methods as described in Mukhopadhyay, et al. (2004) Mol. Cell. 14, 739-751; Tuske, et al. […] Cell 122, 541-552). Saturation mutagenesis was performed using a set of “doped” oligodeoxyribonucleotide primers targeting all codons for residues located within 30 Å of β′ residue 345 and β residues 1275 and 1292 in the three-dimensional structure of bacterial RNAP (primer sequences in Table 2). […]

mice = settings: at concentrations up to 100 mg/kg; cited from earlier work
Bacillus subtilis = settings: cited from earlier work
Enterobacter cloacae = settings: cited from earlier work
Mycobacterium smegmatis = settings: cited from earlier work
B. megaterium = settings: cited from earlier work
[4] = target: wild-type Escherichia coli RNAP and [Arg345]β′-RNAP (Escherichia coli, UniProt P0A8T7+P0A8V2, K345R); settings: [Arg345]β′-RNAP versus wild-type RNAP; FIG. 7
Micrococcus luteus = settings: cited from earlier work
[5] = target: T. thermophilus RNAP holoenzyme (Thermus thermophilus, UniProt Q8RQE8+Q8RQE9); test: inhibition of T. thermophilus RNAP holoenzyme; assay type: biochemical; settings: unpublished data; read-out: K, inhibition of T. thermophilus RNAP holoenzyme
[6] = system: Corynebacterium mediolanum; settings: cited from earlier work
Enterococcus faecium = settings: cited from earlier work
Pseudomonas aeruginosa = settings: cited from earlier work

C/C(=C\Cc1ccccc1)CCC(=O)C[C@H]1C[C@H](O)C/C(C)=C/C/C=C/C/C(CC(=O)O)=C\C(=O)O1 [Rip, ripostatin]
inhibition of eukaryotic RNAP II (eukaryotic RNAP II): does not inhibit | effects on transcription, promoter binding, and promoter-subfragment binding (Escherichia coli RNAP; results not shown): same mechanism as Myx | MIC (Staphylococcus aureus): ≤ 1 µg/mL | bacteriocidal or not [1]: bacteriocidal | Ki (bacterial RNAP): 0.3 µM | MIC [2]: ≤ 1 µg/mL | MIC ratio (MIC, mutant/MIC, wild-type) ([3]; rpoB 1255 Thr→Ile): 4 | MIC ratio (MIC, mutant/MIC, wild-type) ([3]; rpoB 1275 Val→Met): 8 | MIC ratio (MIC, mutant/MIC, wild-type) ([3]; rpoB 1275 Val→Phe): >16 | MIC ratio (MIC, mutant/MIC, wild-type) ([3]; rpoB 1278 Leu→Val): >16 | MIC ratio (MIC, mutant/MIC, wild-type) ([3]; rpoB 1279 Glu→Gly): >16 | MIC ratio (MIC, mutant/MIC, wild-type) ([3]; rpoB 1279 Glu→Lys): 4 | MIC ratio (MIC, mutant/MIC, wild-type) ([3]; rpoB 1283 Ala→Val): 4 | MIC ratio (MIC, mutant/MIC, wild-type) ([3]; rpoB 1285 Tyr→Asp): 4 | MIC ratio (MIC, mutant/MIC, wild-type) ([3]; rpoB 1291 Leu→Phe): 4 | MIC ratio (MIC, mutant/MIC, wild-type) ([3]; rpoB 1298 Val→Leu): 4 | MIC ratio (MIC, mutant/MIC, wild-type) ([3]; rpoB 1315 Met→Leu): 4 | MIC ratio (MIC, mutant/MIC, wild-type) ([3]; rpoB 1317 Pro→Leu): 2 | MIC ratio (MIC, mutant/MIC, wild-type) ([3]; rpoB 1320 Pro→Ala): 4 | MIC ratio (MIC, mutant/MIC, wild-type) ([3]; rpoB 1322 Ser→Pro): >16 | MIC ratio (MIC, mutant/MIC, wild-type) ([3]; rpoB 1322 Ser→Thr): 4 | MIC ratio (MIC, mutant/MIC, wild-type) ([3]; rpoB 1322 Ser→Tyr): 2 | MIC ratio (MIC, mutant/MIC, wild-type) ([3]; rpoB 1322 Ser→Val): >16 | MIC ratio (MIC, mutant/MIC, wild-type) ([3]; rpoB 1325 Val→Leu): 4 | MIC ratio (MIC, mutant/MIC, wild-type) ([3]; rpoB 1326 Leu→Trp): >16 | MIC ratio (MIC, mutant/MIC, wild-type) ([3]; rpoC 345 Lys→Arg): >16 | MIC ratio (MIC, mutant/MIC, wild-type) ([3]; rpoC 345 Lys→Asn): 8 | MIC ratio (MIC, mutant/MIC, wild-type) ([3]; rpoC 345 Lys→Thr): >16 | MIC ratio (MIC, mutant/MIC, wild-type) ([3]; rpoC 1346 Gly→Asp): 4 | MIC ratio (MIC, mutant/MIC, wild-type) ([3]; rpoC 1351 Val→Phe): >16 | MIC ratio (MIC, mutant/MIC, wild-type) ([3]; rpoC 1352 Ile→Asn): >16 | MIC ratio (MIC, mutant/MIC, wild-type) ([3]; rpoC 1352 Ile→Ser): >16 | MIC ratio (MIC, mutant/MIC, wild-type) ([3]; rpoC 1354 Gly→Cys): 4

CCC/C(C)=C/C=C(\C)C(=O)c1c(O)cc([C@H](C)CC/C=C/NC(=O)OC)oc1=O [Myx, myxopyronin]
acute toxicity in mice (mice): no acute toxicity | inhibition of eukaryotic RNAP II (eukaryotic RNAP II): does not inhibit | MIC (Bacillus subtilis): ≤ 10 µg/mL | MIC (Enterobacter cloacae): ≤ 10 µg/mL | interaction of RNAP with promoter DNA (Escherichia coli RNAP): preventing stable interaction | interaction of RNAP with promoter DNA segment comprising positions −40 to −12 (Escherichia coli RNAP): does not inhibit | interaction of RNAP with segment of promoter DNA comprising positions −11 to +15 (Escherichia coli RNAP): inhibits | MIC (Mycobacterium smegmatis): ≤ 10 µg/mL | bacteriocidal or not [1]: bacteriocidal | MIC (B. megaterium): ≤ 10 µg/mL | effect of substitution within the switch-region sequence on binding of Myx to RNAP [4]: reduces binding | MIC (Micrococcus luteus): ≤ 10 µg/mL | Ki [5]: 20 µM | MIC [6]: ≤ 10 µg/mL | Ki (bacterial RNAP): 1 µM | MIC (Enterococcus faecium): ≤ 10 µg/mL | MIC ratio (MIC, mutant/MIC, wild-type) ([3]; rpoB 1255 Thr→Ile): 2 | MIC ratio (MIC, mutant/MIC, wild-type) ([3]; rpoB 1275 Val→Met): >32 | MIC ratio (MIC, mutant/MIC, wild-type) ([3]; rpoB 1275 Val→Phe): >32 | MIC ratio (MIC, mutant/MIC, wild-type) ([3]; rpoB 1278 Leu→Val): 2 | MIC ratio (MIC, mutant/MIC, wild-type) ([3]; rpoB 1279 Glu→Gly): 32 | MIC ratio (MIC, mutant/MIC, wild-type) ([3]; rpoB 1279 Glu→Lys): >32 | MIC ratio (MIC, mutant/MIC, wild-type) ([3]; rpoB 1283 Ala→Val): 2 | MIC ratio (MIC, mutant/MIC, wild-type) ([3]; rpoB 1285 Tyr→Asp): 2 | MIC ratio (MIC, mutant/MIC, wild-type) ([3]; rpoB 1291 Leu→Phe): 2 | MIC ratio (MIC, mutant/MIC, wild-type) ([3]; rpoB 1298 Val→Leu): 4 and 2 | MIC ratio (MIC, mutant/MIC, wild-type) ([3]; rpoB 1315 Met→Leu): 2 | MIC ratio (MIC, mutant/MIC, wild-type) ([3]; rpoB 1317 Pro→Leu): 2 | MIC ratio (MIC, mutant/MIC, wild-type) ([3]; rpoB 1320 Pro→Ala): 2 | MIC ratio (MIC, mutant/MIC, wild-type) ([3]; rpoB 1322 Ser→Pro): 32 | MIC ratio (MIC, mutant/MIC, wild-type) ([3]; rpoB 1322 Ser→Thr): 2 | MIC ratio (MIC, mutant/MIC, wild-type) ([3]; rpoB 1322 Ser→Tyr): 2 | MIC ratio (MIC, mutant/MIC, wild-type) ([3]; rpoB 1322 Ser→Val): 16 | MIC ratio (MIC, mutant/MIC, wild-type) ([3]; rpoB 1325 Val→Leu): 2 | MIC ratio (MIC, mutant/MIC, wild-type) ([3]; rpoB 1326 Leu→Trp): 1 | MIC ratio (MIC, mutant/MIC, wild-type) ([3]; rpoC 345 Lys→Arg): >32 | MIC ratio (MIC, mutant/MIC, wild-type) ([3]; rpoC 345 Lys→Asn): 32 | MIC ratio (MIC, mutant/MIC, wild-type) ([3]; rpoC 345 Lys→Thr): 32 | MIC ratio (MIC, mutant/MIC, wild-type) ([3]; rpoC 1346 Gly→Asp): 1 | MIC ratio (MIC, mutant/MIC, wild-type) ([3]; rpoC 1351 Val→Phe): >32 | MIC ratio (MIC, mutant/MIC, wild-type) ([3]; rpoC 1352 Ile→Asn): 2 | MIC ratio (MIC, mutant/MIC, wild-type) ([3]; rpoC 1352 Ile→Ser): 2 | MIC ratio (MIC, mutant/MIC, wild-type) ([3]; rpoC 1354 Gly→Cys): 2 | MIC (Pseudomonas aeruginosa): ≤ 10 µg/mL

C/C=C/C/C=C(\C)C(O)CC/C(C)=C/C=C(\C)C(=O)c1c(O)cc([C@H](C)CC/C=C/NC(=O)OC)oc1=O (some centres unmarked) [Cor, corallopyronin]
inhibition of eukaryotic RNAP II (eukaryotic RNAP II): does not inhibit | MIC (Bacillus subtilis): ≤ 10 µg/mL | effects on transcription, promoter binding, and promoter-subfragment binding (Escherichia coli RNAP): same mechanism as Myx | bacteriocidal or not [1]: bacteriocidal | MIC (B. megaterium): ≤ 10 µg/mL | MIC (Micrococcus luteus): ≤ 10 µg/mL | MIC [6]: ≤ 10 µg/mL | Ki (bacterial RNAP): 4 µM | MIC [2]: ≤ 10 µg/mL | MIC ratio (MIC, mutant/MIC, wild-type) ([3]; rpoB 1255 Thr→Ile): 4 | MIC ratio (MIC, mutant/MIC, wild-type) ([3]; rpoB 1275 Val→Met): >8 | MIC ratio (MIC, mutant/MIC, wild-type) ([3]; rpoB 1275 Val→Phe): >8 | MIC ratio (MIC, mutant/MIC, wild-type) ([3]; rpoB 1278 Leu→Val): 4 | MIC ratio (MIC, mutant/MIC, wild-type) ([3]; rpoB 1279 Glu→Gly): 4 | MIC ratio (MIC, mutant/MIC, wild-type) ([3]; rpoB 1279 Glu→Lys): 8 | MIC ratio (MIC, mutant/MIC, wild-type) ([3]; rpoB 1283 Ala→Val): 4 | MIC ratio (MIC, mutant/MIC, wild-type) ([3]; rpoB 1285 Tyr→Asp): 1 | MIC ratio (MIC, mutant/MIC, wild-type) ([3]; rpoB 1291 Leu→Phe): 1 | MIC ratio (MIC, mutant/MIC, wild-type) ([3]; rpoB 1298 Val→Leu): 2 | MIC ratio (MIC, mutant/MIC, wild-type) ([3]; rpoB 1315 Met→Leu): 2 | MIC ratio (MIC, mutant/MIC, wild-type) ([3]; rpoB 1317 Pro→Leu): 2 | MIC ratio (MIC, mutant/MIC, wild-type) ([3]; rpoB 1320 Pro→Ala): 4 | MIC ratio (MIC, mutant/MIC, wild-type) ([3]; rpoB 1322 Ser→Pro): 4 | MIC ratio (MIC, mutant/MIC, wild-type) ([3]; rpoB 1322 Ser→Thr): 4 | MIC ratio (MIC, mutant/MIC, wild-type) ([3]; rpoB 1322 Ser→Tyr): 4 | MIC ratio (MIC, mutant/MIC, wild-type) ([3]; rpoB 1322 Ser→Val): 8 | MIC ratio (MIC, mutant/MIC, wild-type) ([3]; rpoB 1325 Val→Leu): 4 | MIC ratio (MIC, mutant/MIC, wild-type) ([3]; rpoB 1326 Leu→Trp): >8 | MIC ratio (MIC, mutant/MIC, wild-type) ([3]; rpoC 345 Lys→Arg): >8 | MIC ratio (MIC, mutant/MIC, wild-type) ([3]; rpoC 345 Lys→Asn): 8 | MIC ratio (MIC, mutant/MIC, wild-type) ([3]; rpoC 345 Lys→Thr): 8 | MIC ratio (MIC, mutant/MIC, wild-type) ([3]; rpoC 1346 Gly→Asp): 4 | MIC ratio (MIC, mutant/MIC, wild-type) ([3]; rpoC 1351 Val→Phe): >8 | MIC ratio (MIC, mutant/MIC, wild-type) ([3]; rpoC 1352 Ile→Asn): 4 | MIC ratio (MIC, mutant/MIC, wild-type) ([3]; rpoC 1352 Ile→Ser): 4 | MIC ratio (MIC, mutant/MIC, wild-type) ([3]; rpoC 1354 Gly→Cys): 2
